The values that follow come from patent US20260356820A1, “Pyrrolidine and Imidazolidine Based DNA Polymerase Theta Inhibitors and Use Thereof” (Thomas Jefferson University, priority 2022, published 2026).

This assay concerns the target T1, human Polq polymerase domain (Homo sapiens, UniProt O75417).
T1 sequence (O75417 1792-2590): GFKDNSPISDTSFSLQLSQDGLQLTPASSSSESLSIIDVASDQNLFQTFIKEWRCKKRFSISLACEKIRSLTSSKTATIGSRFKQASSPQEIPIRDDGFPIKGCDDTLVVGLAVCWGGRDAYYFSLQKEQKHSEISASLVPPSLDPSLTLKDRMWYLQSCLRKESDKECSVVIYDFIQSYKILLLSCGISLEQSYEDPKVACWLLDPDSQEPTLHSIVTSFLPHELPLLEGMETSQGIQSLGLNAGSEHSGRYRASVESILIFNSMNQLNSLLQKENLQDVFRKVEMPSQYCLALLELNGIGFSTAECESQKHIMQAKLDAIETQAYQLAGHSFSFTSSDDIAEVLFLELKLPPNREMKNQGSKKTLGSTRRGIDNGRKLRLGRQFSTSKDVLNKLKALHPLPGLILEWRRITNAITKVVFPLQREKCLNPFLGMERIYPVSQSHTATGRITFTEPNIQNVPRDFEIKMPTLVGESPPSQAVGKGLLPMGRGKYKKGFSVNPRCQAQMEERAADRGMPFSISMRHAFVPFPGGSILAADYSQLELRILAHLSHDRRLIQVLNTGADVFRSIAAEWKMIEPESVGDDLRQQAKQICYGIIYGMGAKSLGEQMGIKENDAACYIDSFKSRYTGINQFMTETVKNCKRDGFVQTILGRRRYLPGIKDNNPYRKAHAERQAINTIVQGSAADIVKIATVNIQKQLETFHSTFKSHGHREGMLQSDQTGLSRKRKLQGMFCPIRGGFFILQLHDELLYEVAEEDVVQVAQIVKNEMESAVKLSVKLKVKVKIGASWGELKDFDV
As to the kind of experiment: Cy5 fluorescence assay of Polq polymerase domain inhibition. The assay is classed as biochemical. How it is done: The following Cy5 fluorescence assay was used to measure the ability of compounds to inhibit Polq polymerase domain in vitro. The fluorescent based assay was performed as follows: 60 nM of the pre-annealed primer-template containing a 5′ Cy5 fluorophore conjugated template strand (SEQ ID NO:3: 5′-/5Cy5/[…]-3′), a downstream complementary oligo conjugated with a 3′ Blackhole quencher (SEQ ID NO:4: 5′-CTAAGCTCACAGTG/3IAbRQSp/-3′) and a primer strand (SEQ ID NO:5: 5′-CTGTCCTGCATGATG-3′) was mixed with 50 uM 2′-deoxyribonucleoside triphosphates (dNTPs), 0.1 mg/mL Bovine serum albumin (BSA), 0.01% NP-40, 10% glycerol, 1 mM dithiothreitol (DTT), 10 mM MgCl2, 25 mM TrisHCl pH 7.8 in the presence of 2.5% DMSO with or without various concentrations (7-point dilution series) of Polq small molecule inhibitors represented by Formula I at 37 °C in a volume of 40 μL.

Where [1] appears, read: 5 nM Polq polymerase domain (residues 1792-2590), 60 nM primer-template, 50 uM dNTPs, 37 °C, 18 min, read-out: IC50 (nM) Polq.

Like-named read-outs stand apart in the source and are kept apart here.

In the case of `[2H]C([2H])([2H])N(C(=O)Oc1c(N2CCN(C[C@@H](O)CN(C)C)C2=O)cc(C(F)(F)F)cc1C(F)(F)F)c1ccc(F)cc1` [Example 49, (S)-2-(3-(3-(dimethylamino)-2-hydroxypropyl)-2-oxoimidazolidin-1-yl)-4,6-bis(trifluoromethyl)phenyl (4-fluorophenyl)(methyl-d3)carbamate], under setting [1], the IC50 (as a rule, the midpoint of a concentration-inhibition curve) is 7.5 nM.
Take `CC(O)CN1CCN(c2cc(C(F)(F)F)cc(C(F)(F)F)c2OC(=O)N(C)c2ccc(F)cc2)C1=O` (centres unmarked) [Example 20, 2,4-bis(trifluoromethyl)-6-(3-(2-hydroxypropyl)-2-oxoimidazolidin-1-yl)phenyl 4-fluorophenylmethylcarbamate]: the concentration for half-maximal inhibition (IC50) under setting [1] was 2.4 nM.
In the case of `[2H]C([2H])([2H])N(C(=O)Oc1c(N2CCN(CC(O)CNC)C2=O)cc(C(F)(F)F)cc1C(F)(F)F)c1ccc(F)c(Cl)c1F` (centres unmarked) [Example 44, 2-(3-(2-hydroxy-3-(methylamino)propyl)-2-oxoimidazolidin-1-yl)-4,6-bis(trifluoromethyl)phenyl (3-chloro-2,4-difluorophenyl)(methyl-d3)carbamate], the IC50 was 7 nM.
Consider `CN(C(=O)Oc1c(N2CCN(CCOC(F)F)C2=O)cc(C(F)(F)F)cc1C(F)(F)F)c1ccc(F)cc1` [Example 32, 2-(3-(2-(difluoromethoxy)ethyl)-2-oxoimidazolidin-1-yl)-4,6-bis(trifluoromethyl)phenyl N-(4-fluorophenyl)-N-methylcarbamate], for which the IC50 is 2.3 nM.
In the case of `[2H]C([2H])([2H])N(C(=O)Oc1c(N2CCN(CC(O)CN(C)C)C2=O)cc(C(F)(F)F)cc1C(F)(F)F)c1ccc(F)cc1` (centres unmarked) [Example 46, 2-(3-(3-(dimethylamino)-2-hydroxypropyl)-2-oxoimidazolidin-1-yl)-4,6-bis(trifluoromethyl)phenyl (4-fluorophenyl)(methyl-d3)carbamate], the IC50 under setting [1] is 5.5 nM.
Consider `CN(C(=O)Oc1c(N2CCN(CC3(O)CNC3)C2=O)cc(C(F)(F)F)cc1C(F)(F)F)c1ccc(F)c(Cl)c1F` [Example 38, 2,4-bis(trifluoromethyl)-6-(3-((3-hydroxyazetidin-3-yl)methyl)-2-oxoimidazolidin-1-yl)phenyl (3-chloro-2,4-difluorophenyl)(methyl)carbamate], for which half-maximal inhibition (IC50) was put at 7.8 nM.
Regarding `Cc1cc(C(F)(F)F)cc(N2C[C@H](O)CC2=O)c1OC(=O)N(C)c1ccc(F)cc1` [Example 12, (R)-2-(4-hydroxy-2-oxopyrrolidin-1-yl)-6-methyl-4-(trifluoromethyl)phenyl (4-fluorophenyl)(methyl)carbamate], 4.4 nM corresponded to half-maximal inhibition (IC50).
Compound `CN(C(=O)Oc1c(N2CCN(CCN3CCOCC3)C2=O)cc(C(F)(F)F)cc1C(F)(F)F)c1ccc(F)cc1` [Example 1, 2-(3-(2-morpholinoethyl)-2-oxoimidazolidin-1-yl)-4,6-bis(trifluoromethyl)phenyl (4-fluorophenyl)(methyl)carbamate] registered a 50% inhibitory concentration (IC50) of 12 nM.
For `CN(C(=O)Oc1c(N2CCN(CCN3CCC(C#N)CC3)C2=O)cc(C(F)(F)F)cc1C(F)(F)F)c1ccc(F)cc1` [Example 3, 2-(3-(2-(4-cyanopiperidin-1-yl)ethyl)-2-oxoimidazolidin-1-yl)-4,6-bis(trifluoromethyl)phenyl (4-fluorophenyl)(methyl)carbamate], the midpoint of inhibition, the IC50, lay at 6 nM.
The same measure, in the same setting: in the case of `Cc1cc(C(F)(F)F)cc(N2CCNC2=O)c1OC(=O)N(C)c1ccc(F)cc1` [Example 13, 2-methyl-6-(2-oxoimidazolidin-1-yl)-4-(trifluoromethyl)phenyl(4-fluorophenyl)(methyl)carbamate] it was 29 nM; in that of `CN(C(=O)Oc1c(N2CCN(CCOS(N)(=O)=O)C2=O)cc(C(F)(F)F)cc1C(F)(F)F)c1ccc(F)cc1` [Example 21, 2-{2-oxo-3-[2-(sulfamoyloxy)ethyl]imidazolidin-1-yl}-4,6-bis(trifluoromethyl)phenyl N-(4-fluorophenyl)-N-methylcarbamate], 1.9 nM.
Take `CN(C(=O)Cc1c(N2CCNC2=O)cc(C(F)(F)F)cc1C(F)(F)F)c1ccc(F)cc1` [Example 51, N-(4-fluorophenyl)-N-methyl-2-(2-(2-oxoimidazolidin-1-yl)-4,6-bis(trifluoromethyl)phenyl)acetamide]: the concentration for half-maximal inhibition (IC50) under setting [1] amounted to 117 nM.
In turn, `[2H]C([2H])([2H])N(C(=O)Oc1c(N2CCN(CCn3ccnc3)C2=O)cc(C(F)(F)F)cc1C(F)(F)F)c1ccc(F)cc1` [Example 42, 2-(3-(2-(1H-imidazol-1-yl)ethyl)-2-oxoimidazolidin-1-yl)-4,6-bis(trifluoromethyl)phenyl (4-fluorophenyl)(methyl-d3)carbamate] had an IC50 of 11.7 nM.
As to `CN(C(=O)Oc1c(N2CCCC2)cc(C(F)(F)F)cc1C(F)(F)F)c1ccc(F)cc1` [Example 11, 2,4-bis(trifluoromethyl)-6-(pyrrolidin-1-yl)phenyl 4-fluorophenylmethylcarbamate], the IC50 under setting [1] worked out at 15 nM.
On the same count and under the same terms, then `CN1CCN(c2cc(C(F)(F)F)cc(C(F)(F)F)c2OC(=O)N(C)c2ccc(F)cc2)C1=O` [Example 5, 2,4-bis(trifluoromethyl)-6-(3-methyl-2-oxoimidazolidin-1-yl)phenyl (4-fluorophenyl)(methyl)carbamate], with 6 nM.
In the case of `CN1C(=O)CN(c2cc(C(F)(F)F)cc(C(F)(F)F)c2OC(=O)N(C)c2ccc(F)cc2)C1=O` [Example 27, 2-(3-methyl-2,4-dioxoimidazolidin-1-yl)-4,6-bis(trifluoromethyl)phenyl N-(4-fluorophenyl)-N-methylcarbamate], half-maximal inhibition (IC50) required 24 nM.
`CN(C(=O)Oc1c(N2CCNC2=O)cc(C(F)(F)F)cc1C(F)(F)F)c1ccc(F)cn1` [Example 52, 2-(2-oxoimidazolidin-1-yl)-4,6-bis(trifluoromethyl)phenyl (5-fluoropyridin-2-yl)(methyl)carbamate] yielded an IC50 of 11.4 nM.
Take `CN(C)CC(O)CN1CCN(c2cc(C(F)(F)F)cc(C(F)(F)F)c2OC(=O)N(C)c2ccc(F)cc2)C1=O` (centres unmarked) [Example 24, 2-(3-(3-(dimethylamino)-2-hydroxypropyl)-2-oxoimidazolidin-1-yl)-4,6-bis(trifluoromethyl)phenyl (4-fluorophenyl)(methyl)carbamate]: under setting [1], the IC50 was found to be 6.7 nM.
For the compound `[2H]C([2H])([2H])N(C(=O)Oc1c(N2CCN(CC3(OS(N)(=O)=O)CN(C(=O)OC(C)(C)C)C3)C2=O)cc(C(F)(F)F)cc1C(F)(F)F)c1ccc(F)c(Cl)c1F` [Example 39, tert-butyl 3-((3-(2-(((3-chloro-2,4-difluorophenyl)(methyl-d3)carbamoyl)oxy)-3,5-bis(trifluoromethyl)phenyl)-2-oxoimidazolidin-1-yl)methyl)-3-(sulfamoyloxy)azetidine-1-carboxylate], the IC50 was 3.8 nM.
`[2H]C([2H])([2H])N(C(=O)Oc1c(N2CCN(C[C@H](O)CN(C)C)C2=O)cc(C(F)(F)F)cc1C(F)(F)F)c1ccc(F)cc1` [Example 50, (R)-2-(3-(3-(dimethylamino)-2-hydroxypropyl)-2-oxoimidazolidin-1-yl)-4,6-bis(trifluoromethyl)phenyl (4-fluorophenyl)(methyl-d3)carbamate]: under setting [1], the IC50 worked out at 5.1 nM.
For `[2H]C([2H])([2H])N(C(=O)Oc1c(N2CCN(CC(O)CNC)C2=O)cc(C(F)(F)F)cc1C(F)(F)F)c1ccc(F)cc1` (centres unmarked) [Example 45, 2-(3-(2-hydroxy-3-(methylamino)propyl)-2-oxoimidazolidin-1-yl)-4,6-bis(trifluoromethyl)phenyl (4-fluorophenyl)(methyl-d3)carbamate], the IC50 under setting [1] was found to be 6.1 nM.
On to `CNCC(O)CN1CCN(c2cc(C(F)(F)F)cc(C(F)(F)F)c2OC(=O)N(C)c2ccc(F)cc2)C1=O` (centres unmarked) [Example 48, 2-(3-(2-hydroxy-3-(methylamino)propyl)-2-oxoimidazolidin-1-yl)-4,6-bis(trifluoromethyl)phenyl (4-fluorophenyl)(methyl)carbamate], for which the IC50 under setting [1] came out at 5.1 nM.
Take `CN(C(=O)Oc1c(N2CCNC2=O)cc(C(F)(F)F)cc1C(F)(F)F)c1cc(Cl)c(F)cc1F` [Example 9, 2,4-bis(trifluoromethyl)-6-(2-oxoimidazolidin-1-yl)phenyl (5-chloro-2,4-difluorophenyl)(methyl)carbamate]: the IC50 turned out to be 21 nM.
